Here are results for six compounds from US20260345459A1, “SUBMICRON PARTICLE COMPRISING A PEPTIDE ACTIVE, PREPARATION METHOD AND USES THEREOF, IN PARTICULAR COSMETIC USES” (Sederma, priority 2023, published 2026).

The nature of data set [1]: Accelerated stability at 40 °C. It is filed as physicochemical. As to the method: (§1) For these studies, encapsulated peptide formulations were stored in HDPE polyethylene bottles at the study temperature (room temperature and 40 °C). At each analysis time, a new 30 g bottle is opened for the first time. All the samples are handled under regular laboratory lighting and normal air conditions. No inert gas is used to fill the bottles or to handle the samples.
The study was performed at 40 °C. At this temperature, degradation is accelerated. There is a correlation with degradation at room temperature, 90 days at 40 °C being equivalent to 1 year at room temperature. This study thus constitutes a good indicator of the stability of the encapsulated peptide suspensions according to the invention.

Data set [2] in a line: Characterization of the obtained suspensions at T0 (macroscopic, pH, laser diffraction particle size, polydispersity, HPLC peptide content). It is filed as physicochemical. The note with it: different derivatization, peptide 100 ppm. The method, then:
For each suspension, the presence or absence of heterogeneous aspects, phase separation or precipitation, and colour are visually assessed through a colourless transparent bottle without the use of any instruments. The viscosity is also estimated visually in comparison with water.
The pH was measured directly in the formulation (without dilution) using a calibrated potentiometer (pH 4.0 and 7.0).
Laser diffraction technique (Mastersizer 3000™, Malvern). The suspension is added directly to the water-containing wet dispersion unit until darkening in the 2-8% range. The refractive index used is 1.456, corresponding to the index of wax, i.e. cetyl palmitate. The results are expressed in D50 corresponding to particle diameters at the 50th percentile of the particle size distribution curve, representing the mean particle size.
A range of less than 2 is considered as a narrow distribution, describing particle size homogeneity.
This is quantified using an HPLC chromatography method, with a column, mobile phase and detection appropriate to each peptide active agent. An external calibration curve is produced.
Each suspension is treated by liquid/liquid extraction of a mixture composed of isopropanol, a pH 2-2.5 buffer and an organic solvent (acetonitrile or methanol) depending on the peptide to be dosed.
For Pal-KTTKS, Pal-GHK, Pal-GQPR and Pal-VGVAPG peptides, quantification is performed, for example, by HPLC at 35 °C using a Waters Symmetry™ C18 5 μm 4.6×150 mm HPLC column, a mobile phase consisting of an eluent of 99.8/0.1/0.1 v/v/v water/orthosphoric acid/triethylamine and acetonitrile. Detection is performed at 210 nm.
For the Pal-PP peptide, for example, analysis is performed at 40 °C using a Macherey Nagel™ EC 125/4 Nucleodur 100-5 C8 ec column, a mobile phase consisting of a 99.8/0.1/0.1 v/v/v water/orthosphoric acid/triethylamine and acetonitrile eluent. Detection is performed at 210 nm. […]

Data set [3] can be described thus: Stability at room temperature. Type of data set: physicochemical. As to the method: as §1
The following encapsulated peptides were monitored: Pal-KTTKS, Pal-GHK, Pal-GQPR, Pal-KTFK, Pal-KMO2K, Pal-VGVAPG and Pal-PP.

Data set [4] can be described thus: Trypsin digestion: proof of encapsulation and half-life. It is filed as in vitro ADME. To be noted: role: substrate; 0.003% trypsin, acetate buffer pH=5, 25 °C, peptide 100 ppm; read-out: T1/2 (loss of 50% of the initial content). The method, then:
The study was performed on a suspension of Pal-KTTKS encapsulated according to the invention, using trypsin, an enzyme that hydrolyses a peptide whose sequence contains the amino acid lysine. The peptide is placed in the presence of trypsin and the amount of peptide remaining, i.e. not hydrolysed by trypsin, is measured as a function of time. Only the peptide released from the capsule over time is susceptible to hydrolysis.
At T0, measurements make it possible to confirm that the peptide is encapsulated.
The kinetics will then make it possible to determine the half-life, which constitutes an indicator of the peptide's accessibility to the enzyme, and therefore an indicator of the peptide's protection by the capsule.
Two solutions are compared: one containing the encapsulated peptide (100 ppm) and the other the free (i.e. non-encapsulated) peptide, also at 100 ppm. Acetate buffer solution at pH=5 containing 0.003% trypsin is added. The samples are heated to 25 °C. The enzymatic reaction is stopped to perform the measurements by adding isopropyl alcohol. Peptide quantification is performed by HPLC using the method described in paragraph B 1-4 above.
Hydrolysis monitoring is performed under the chromatographic analysis conditions described in paragraph B 1-4 above.

Setting [5] is: different derivatization, peptide 100 ppm, 1 month at 40 °C.
The mark [6] stands for this setting: TA1 decyl glucoside, RT, 3 months.

Residues, ends and D or L forms follow the SMILES beside them. No end group written: not given here. *: point of attachment. Palmitoyl = CCCCCCCCCCCCCCCC(=O)*; Lauroyl = CCCCCCCCCCCC(=O)*

For the compound `CCCCCCCCCCCC(=O)N[C@@H](CCCCN)C(=O)N[C@H](C(=O)N[C@@H](CO)C(=O)N[C@@H](CCCCN)C(=O)N[C@@H](CO)C(=O)O)[C@@H](C)O` [Lauroyl-KTSKS] (Lauroyl-KTSKS-OH), the Stability over time entry in data set [1] (setting [5]) was “Yes”.
As to `CCCCCCCCCCCCCCCCOC(=O)[C@H](CCCNC(=N)N)NC(=O)[C@H](Cc1ccc(O)cc1)NC(C)=O` [N-Acetyl-YR-O-hexadecyl ester, Acetyl-Tyr-Arg-hexadecyl ester], in data set [2], the D50 result is given as “D50 (μm) = 0.234”, the “Formation of a suspension of submicron particles” value is reported as “Yes” and the pH result is “pH 8.70”. Moreover, in data set [1] (setting [5]), the D50 entry is given as “D50 (μm) = 0.237”, the Stability over time result is reported as “Yes” and the pH entry is recorded as “pH 8.70”.
On to `CCCCCCCC(=O)N[C@H](C(=O)N[C@@H](Cc1c[nH]c2ccccc12)C(=O)O)[C@@H](C)CC` [Octanoyl-IW], for which the Stability over time result in data set [1] (setting [5]) is on record as “Yes”.
As to `CCCCCCCCCCCCCCCC(=O)NCC(=O)N[C@@H](Cc1c[nH]cn1)C(=O)N[C@@H](CCCCN)C(=O)O` [Pal-GHK] (Palmitoyl-Gly-His-Lys-OH), the Stability over time entry in data set [3] (10% glycerol, 1 month) is “Yes”; in data set [3] (TA1 + TA2 (Lipoid P75-3), 3 months at RT) it was “Yes”; in data set [3] (setting [6]), “Yes (3 months)”; in data set [3] (TA1 lauryl glucoside, RT, 3 months), “Yes (3 months)”; in data set [3] (TA1 only, without TA2, 3 months at RT) it was “Yes”; in data set [3] (peptide content 100 ppm, RT, 1 month), “Yes”. In addition, the Stability over time result was “Yes” in data set [3] (peptide content 500 ppm, RT, 1 month); “Yes” in data set [3] (peptide content 1000 ppm, RT, 1 month); “Yes” in data set [3] (without glycerol, 1 month); “Yes” in data set [1] (TA1 + TA2 (Lipoid P75-3), 3 months at 40 °C); “No: Phase” in data set [1] (TA1 only, without TA2, 3 months at 40 °C).
Take `CCCCCCCCCCCCCCCC(=O)N[C@@H](CCCCN)C(=O)N[C@H](C(=O)N[C@H](C(=O)N[C@@H](CCCCN)C(=O)N[C@@H](CO)C(=O)O)[C@@H](C)O)[C@@H](C)O` [Pal-KTTKS] (Palmitoyl-KTTKS-OH): the Stability over time entry is “Yes” in data set [3] (2.5% wax, RT, 6 months); “Yes” in data set [3] (5% wax, RT, 6 months); “Yes (3 months)” in data set [3] (setting [6]); “Yes (12 months)” in data set [3] (TA1 lauryl glucoside, RT, 12 months); “Yes” in data set [1] (setting [5]). The stability duration result in data set [3] (room temperature, encapsulated) is “up to 1 year”. Moreover, the half-life in data set [4] was 1 h.
As for KTTKS [H-KTTKS], in data set [1] (setting [5]), the Stability over time entry is recorded as “Yes”.
